Data: patent US20160039825A1 (BIOGEN MA INC., priority 2013, published 2016)

target: T1, Human ATX protein (Homo sapiens, UniProt Q13822); assay: Autotaxin (ATX) assay, FRET with FS-3 substrate; assay type: biochemical; conditions: upper bound bins (no greater than 100, 250 or 500 nM); FS-3 2 μM, ATX 1.0 μg/mL
T1 construct: made in house
Text: ATX (Autotaxin) is a 125 KDa glycoprotein with lysophospholipase D (LPLD) activity that generates the bioactive lipid lysophosphatidic acid (LPA) from lysophosphatidylcholine (LPC). The ATX biochemical assay utilizes a FRET (fluorescence resonance energy transfer) technology platform. The fluorescence signal of FRET substrate FS-3 is quenched due to intra-molecular FRET of a fluorophore to a non-fluorescing quencher (Ferguson, C. G., et al., Org Lett. 2006 May 11; 8(10): 2023-2026, which is incorporated by reference in its entirety). ATX catalyzes the hydrolysis of the substrate which separates the dabsyl quencher from the fluorescein reporter, which becomes fluorescent. The reaction is monitored by a SpectraMax M5 (Molecular Devices, Sunnyvale, Calif.) with at excitation wavelength 485 nm and emission wavelength […].
Fatty acid free-BSA (Sigma A8806): 10 mg/mL in H2O, stored at 4° C.
2×ATX assay buffer: 100 mM Tris, 280 mM NaCl, 10 mM KCl, 2 mM CaCl2, 2 mM MgCl2, pH 7.4.
Human ATX protein: expressed and purified in house. Stored at −80° C.
Substrate FS-3 (Echelon, L-2000): 100 μg in 77.74 μL H2O (1 mM stock), stored at −20° C.
384-well flat bottom plates—Corning #3575.
Compound dilution—All compounds were provided at 10 mM in 100% DMSO. In the first well, 2 μL of 10 mM compound was added to 78 μL of DMSO (1:40 dilution). In subsequent wells 3-fold dilution (total 10 dilutions) were performed.
1×ATX assay buffer was made up with a final concentration of 1 mg/mL fatty acid free-BSA using 2×ATX assay buffer, 10 mg/ml fatty acid free-BSA and ddH2O.
ATX protein was diluted with 1×ATX assay buffer to a concentration of 1.32 μg/mL (1.32×). 38 μL was added per well to the assay plate. The final concentration of ATX in the reaction as 1.0 μg/mL.
2 μL per well of compounds was transferred to provide the desired concentration. The plate was centrifuged, then incubated at room temperature for 30 minutes on the shaker.
FS-3 was diluted with 1×ATX assay buffer to a concentration of FS-3 of 10 μM (5×). Then, 10 μL was added per well to the assay plate. The final concentration of FS-3 in the reaction was 2 μM. The plate was centrifuged. The plate was kept shaking at room temperature for 2 hours. Because FS-3 substrate is light sensitive, plates were kept covered and protected from light.
Fluorescence was measured using SpectraMax M5 (excitation at 485 nm/emission at 538 nm, top read).

Row | Compound | IC50 [nM]
1 | N#Cc1cc2n(n1)CCCN(C(=O)OCc1cc(Cl)cc(Cl)c1)C2 [Example 122, 3,5-Dichlorobenzyl 2-cyano-7,8-dihydro-4H-pyrazolo[1,5-a][1,4]diazepine-5(6H)-carboxylate] | ≤ 250
2 | O=C(O)C1CC2CCCC(C1)N2C(=O)c1cc2n(n1)CCCN(C(=O)OCc1cccc(Cl)c1)C2 (centres unmarked) [Example 57, 9-(5-((3-Chlorobenzyloxy)carbonyl)-5,6,7,8-tetrahydro-4H-pyrazolo[1,5-a][1,4]diazepine-2-carbonyl)-9-aza-bicyclo[3.3.1]nonane-3-carboxylic acid] | ≤ 250
3 | O=C(OCc1cc(Cl)cc(Cl)c1)N1CCCn2nc(C(=O)N3C4CCCC3CCC4)cc2C1 [Example 12, 3,5-Dichlorobenzyl 2-(9-azabicyclo[3.3.1]nonane-9-carbonyl)-7,8-dihydro-4H-pyrazolo[1,5-a][1,4]diazepine-5(6H)-carboxylate] | ≤ 100
4 | CC(c1cc2n(n1)CCN(C(=O)OCc1cc(C(F)(F)F)cc(C(F)(F)F)c1)C2)N1C2CCC1CNC2 (centres unmarked) [Example 428] | ≤ 100
5 | CN1CCC(Nc2cc3n(n2)CCCN(C(=O)OCc2cc(C(F)(F)F)cc(C(F)(F)F)c2)C3)CC1 [Example 352, 3,5-bis(trifluoromethyl)benzyl 2-((1-methylpiperidin-4-yl)amino)-7,8-dihydro-4H-pyrazolo[1,5-a][1,4]diazepine-5(6H)-carboxylate] | ≤ 250
6 | O=C(OCc1cc(Cl)cc(Cl)c1)N1CCCn2nc(C(=O)N3CCN4CCC[C@@H]4C3)cc2C1 [Example 228] | ≤ 100
7 | CN1CCN(C(=O)c2cc3n(n2)CCCN(C(=O)OCc2cc(C(F)(F)F)cc(C(F)(F)F)c2)C3)C2(CC2)C1 [Example 220] | ≤ 100
8 | O=C(OCc1cc(Cl)cc(Cl)c1)N1CCCn2nc(C(=O)N3CCOCC3)cc2C1 [Example 23, 3,5-Dichlorobenzyl 2-(morpholine-4-carbonyl)-7,8-dihydro-4H-pyrazolo[1,5-a][1,4]diazepine-5(6H)-carboxylate] | ≤ 100
9 | O=C(OCc1cc(C(F)(F)F)cc(C(F)(F)F)c1)N1CCCn2nc(NC3CCCCNC3)cc2C1 (centres unmarked) [Example 326] | ≤ 100
10 | COCc1cc2n(n1)CCCN(C(=O)OCc1cc(C(F)(F)F)cc(C(F)(F)F)c1)C2 [Example 285, 3,5-bis(trifluoromethyl)benzyl 2-(methoxymethyl)-7,8-dihydro-4H-pyrazolo[1,5-a][1,4]diazepine-5(6H)-carboxylate] | ≤ 100
11 | CC(C)(C)OC(=O)N1CCN(C(=O)c2cc3n(n2)CCN(C(=O)OCc2cc(C(F)(F)F)cc(C(F)(F)F)c2)C3)CC1(C)C [Example 466] | ≤ 100
12 | CC(=O)Nc1cc2n(n1)CCCN(C(=O)OCc1cc(C(F)(F)F)cc(C(F)(F)F)c1)C2 [Example 337, 3,5-bis(trifluoromethyl)benzyl 2-acetamido-7,8-dihydro-4H-pyrazolo[1,5-a][1,4]diazepine-5(6H)-carboxylate] | ≤ 100
13 | O=C(OCc1cc(C(F)(F)F)cc(C(F)(F)F)c1)N1CCCn2nc(C3=CC4CCC(C3)N4)cc2C1 (centres unmarked) [Example 376] | ≤ 100
14 | NCCNC(=O)c1cc2n(n1)CCN(C(=O)OCc1cc(C(F)(F)F)cc(C(F)(F)F)c1)C2 [Example 425] | ≤ 100
15 | CC(C)(C)C1CC(Nc2cc3n(n2)CCCN(C(=O)OCc2cc(C(F)(F)F)cc(C(F)(F)F)c2)C3)CCN1 (centres unmarked) [Example 319] | ≤ 100
16 | CC(C)(C)NC(=O)c1cc2n(n1)CCCN(C(=O)OCc1cc(Cl)cc(Cl)c1)C2 [Example 14, 3,5-Dichlorobenzyl 2-(tert-butylcarbamoyl)-7,8-dihydro-4H-pyrazolo[1,5-a][1,4]diazepine-5(6H)-carboxylate] | ≤ 250
17 | O=C(O)C1CCN(C(=O)c2cc3n(n2)CCN(C(=O)OCc2cc(C(F)(F)F)cc(C(F)(F)F)c2)C3)CC1 [Example 418] | ≤ 100
18 | O=C(O)c1cc2n(n1)CCCN(C(=O)OCc1cc(F)cc(Cl)c1)C2 [Example 68, 5-(((3-Chloro-5-fluorobenzyl)oxy)carbonyl)-5,6,7,8-tetrahydro-4H-pyrazolo[1,5-a][1,4]diazepine-2-carboxylic acid] | ≤ 500
19 | CC(C)C1CC(Nc2cc3n(n2)CCCN(C(=O)OCc2cc(C(F)(F)F)cc(C(F)(F)F)c2)C3)CCN1 (centres unmarked) [Example 314] | ≤ 100
20 | O=C(OCc1cc(Cl)cc(C(F)(F)F)c1)N1CCCn2nc(CNC3=NCCN3)cc2C1 [Example 154, 3-chloro-5-(trifluoromethyl)benzyl 2-(((4,5-dihydro-1H-imidazol-2-yl)amino)methyl)-7,8-dihydro-4H-pyrazolo[1,5-a][1,4]diazepine-5(6H)-carboxylate] | ≤ 250
21 | O=C(O)c1cnc2n1CCN(C(=O)OCc1cc(C(F)(F)F)cc(C(F)(F)F)c1)CC2 [Example 10, 7-(((3,5-Bis(trifluoromethyl)benzyl)oxy)carbonyl)-6,7,8,9-tetrahydro-5H-imidazo[1,2-d][1,4]diazepine-3-carboxylic acid] | ≤ 500
22 | N#Cc1cc2n(n1)CCCN(C(=O)OCc1cc(F)cc(C(F)(F)F)c1)C2 [Example 129] | ≤ 500
23 | CCN1CCN(C(=O)c2cc3n(n2)CCCN(C(=O)OCc2cc(Cl)cc(C(F)(F)F)c2)C3)C(C)(C)C1 [Example 172] | ≤ 100
24 | O=C(OCc1cc(C(F)(F)F)cc(C(F)(F)F)c1)N1CCn2c(nnc2C(F)(F)F)C1 [Example 134, 3,5-Bis(trifluoromethyl)benzyl 3-(trifluoromethyl)-5,6-dihydro-[1,2,4]triazolo[4,3-a]pyrazine-7(8H)-carboxylate] | ≤ 500

The remaining lines, values ahead:

Row | IC50 [nM] | Compound
25 | ≤ 100 | CC1CN(C(=O)OC(C)(C)C)CC(C)N1C(=O)c1cc2n(n1)CCN(C(=O)OCc1cc(C(F)(F)F)cc(C(F)(F)F)c1)C2 (centres unmarked) [Example 476]
26 | ≤ 100 | O=C(OCc1cc(C(F)(F)F)cc(C(F)(F)F)c1)N1CCCn2nc(N3CCCCC3=O)cc2C1 [Example 328, 3,5-bis(trifluoromethyl)benzyl 2-(2-oxopiperidin-1-yl)-7,8-dihydro-4H-pyrazolo[1,5-a][1,4]diazepine-5(6H)-carboxylate]
27 | ≤ 100 | CN1CCC2C1CCN2c1cc2n(n1)CCCN(C(=O)OCc1cc(C(F)(F)F)cc(C(F)(F)F)c1)C2 (centres unmarked) [Example 360]
28 | ≤ 100 | CC1(C)CN(C(=O)c2cc3n(n2)CCN(C(=O)OCc2cc(C(F)(F)F)cc(C(F)(F)F)c2)C3)CCN1 [Example 436]
29 | ≤ 100 | O=C(O)c1cc2n(n1)CCCN(C(=O)OCc1cc(F)cc(C(F)(F)F)c1)C2 [Example 64, 5-(((3-Fluoro-5-(trifluoromethyl)benzyl)oxy)carbonyl)-5,6,7,8-tetrahydro-4H-pyrazolo[1,5-a][1,4]diazepine-2-carboxylic acid]
30 | ≤ 100 | CN1CCN(c2cc3n(n2)CCN(C(=O)OCc2cc(C(F)(F)F)cc(C(F)(F)F)c2)C3)CC1 [Example 393, 3,5-bis(Trifluoromethyl)benzyl 2-(4-methylpiperazin-1-yl)-6,7-dihydropyrazolo[1,5-a]pyrazine-5(4H)-carboxylate]
31 | ≤ 100 | O=C(OCc1cc(C(F)(F)F)cc(C(F)(F)F)c1)N1CCCn2nc(C(=O)N3CCNCC34CCCC4)cc2C1 [Example 240]
32 | ≤ 100 | Cc1cc(COC(=O)N2CCCn3nc(C(=O)O)cc3C2)cc(C(F)(F)F)c1 [Example 109, 5-(((3-Methyl-5-(trifluoromethyl)benzyl)oxy)carbonyl)-5,6,7,8-tetrahydro-4H-pyrazolo[1,5-a][1,4]diazepine-2-carboxylic acid]
33 | ≤ 100 | CCN1CC2CN(c3cc4n(n3)CCCN(C(=O)OCc3cc(C(F)(F)F)cc(C(F)(F)F)c3)C4)CC2C1 (centres unmarked) [Example 350]
34 | ≤ 100 | CC1(C)CN(C(=O)c2cc3n(n2)CCCN(C(=O)OCc2cc(Cl)cc(C(F)(F)F)c2)C3)CCN1 [Example 200]
35 | ≤ 100 | O=C(OCc1cc(C(F)(F)F)cc(C(F)(F)F)c1)N1CCCn2nc(C(=O)N3CC4CCC3CN4)cc2C1 (centres unmarked) [Example 224]
36 | ≤ 100 | O=C(OCc1cc(Cl)cc(C(F)(F)F)c1)N1CCCn2nc(C(O)C(F)(F)F)cc2C1 (centres unmarked) [Example 286, 3-chloro-5-(trifluoromethyl)benzyl 2-(2,2,2-trifluoro-1-hydroxyethyl)-7,8-dihydro-4H-pyrazolo[1,5-a][1,4]diazepine-5(6H)-carboxylate]
37 | ≤ 100 | N#CC1CNCCN1C(=O)c1cc2n(n1)CCCN(C(=O)OCc1cc(Cl)cc(C(F)(F)F)c1)C2 (centres unmarked) [Example 196]
38 | ≤ 100 | CCC1(CC)CNCCN1C(=O)c1cc2n(n1)CCCN(C(=O)OCc1cc(C(F)(F)F)cc(C(F)(F)F)c1)C2 [Example 241]
